The target of one data set is T1, ETBR (Homo sapiens, UniProt P24530).
T1 sequence (P24530 27-442): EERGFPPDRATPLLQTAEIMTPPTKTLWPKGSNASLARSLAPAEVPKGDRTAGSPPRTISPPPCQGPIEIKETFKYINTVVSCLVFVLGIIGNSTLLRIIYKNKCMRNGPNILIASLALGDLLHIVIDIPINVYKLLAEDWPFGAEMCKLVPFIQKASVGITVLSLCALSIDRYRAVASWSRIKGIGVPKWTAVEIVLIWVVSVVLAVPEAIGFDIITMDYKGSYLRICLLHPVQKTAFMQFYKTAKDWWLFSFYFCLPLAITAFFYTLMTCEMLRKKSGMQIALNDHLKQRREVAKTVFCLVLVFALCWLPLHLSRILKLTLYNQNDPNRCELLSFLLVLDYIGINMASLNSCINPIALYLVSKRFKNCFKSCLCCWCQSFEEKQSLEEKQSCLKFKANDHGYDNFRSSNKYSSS
In words: ETBR antagonist potency (IC50, Ki); no method given. The settings on record: for pIC50: for BQ788 printed with 'potent inhibitor of ETBR-related melanoma cell growth'. It is filed as binding.

Data set [1] has as its system melanoma cell lines overexpressing ETBR (brain metastases). The data set is described as follows: Mouse melanoma brain metastasis model, xenografts of melanoma cell lines overexpressing ETBR. It is filed as in vivo, mice. The settings on record: 60 mg/kg/day. As to the method:
FIGS. 5A, 5B, 5C, 5D, and 5E. ETBR antagonist inhibits melanoma brain metastasis in mice. […] In this study, lentiviral vectors were used to overexpress ETBR in melanoma cell lines, which were in turn used to implant xenografts in mice.
A192621 was administered at a dose of 60 mg/kg/day using a mouse melanoma model. […] In this study, lentiviral vectors were used to overexpress ETBR in melanoma cell lines, which were in turn used to implant xenografts in mice. In this study, lentiviral vectors were used to overexpress ETBR in melanoma cell lines, which were in turn used to implant xenografts in mice.

In data set [2] the test system is SKMEL28 human melanoma cells. The data set is described as follows: SKMEL28 human melanoma xenograft in mice: tumor weight, lung metastases, apoptosis. It is filed as in vivo. As to the method:
Mice were implanted with 1×10^6 SKMEL28 human melanoma cells. Tumors were established for 10 days until palpable then 120 ng (˜60 ug/kg) BQ788 dissolved in DMSO was injected IP 3×per week×6 weeks. Mice were then sacrificed and lungs harvested and tumors weighed. A 75% reduction in tumor weight was observed.
(A xenograft is tissue or cells of one species grown in another, often human tumour cells in immunodeficient mice.)

Data set [3] can be described thus: Body weight under ascending intranasal BQ788 doses over 42 days. In kind it is in vivo, athymic nude mice. The following applies: BQ788 alone, intranasally in 20% DMSO, ascending doses over 42 days. As to the method:
FIG. 9. ETAR antagonist and Niacinamide mitigate weight loss from BQ788. Six week old athymic nude mice were administered the ETBR antagonist BQ788 intranasally in 20% DMSO at the indicated ascending doses over a period of 42 days. One group was additionally administered the ETAR antagonist Macitentan orally at a dose of 5 mg/kg daily. The drinking water of these mice was supplemented with the B vitamin niacinamide at a concentration of 0.3 mg/mL. […] Co-administration of the ETAR antagonist Macitentan with niacinamide supplementation mitigated this weight loss. […] Co-administration of ETAR antagonists and niacinamide with ETBR antagonists mitigated the adverse effects of ETBR antagonists when administered for therapeutic purposes.
Six week old athymic nude mice (n=3 per group) were administered the ETBR antagonist BQ788 intranasally in 20% DMSO at the indicated ascending doses over a period of 42 days. One group was additionally administered the ETAR antagonist Macitentan orally at a dose of 5 mg/kg daily. The drinking water of these mice was supplemented with the B vitamin niacinamide at a concentration of 0.3 mg/mL. […] Co-administration of the ETAR antagonist Macitentan with niacinamide supplementation mitigated this weight loss. […]

Data set [4] deals with A375 human melanoma cells. In words: Subcutaneous A375 human melanoma xenograft. In kind it is in vivo, Nu/J nude mice. The settings on record: A375 sc xenograft; Dabrafenib 100 mg/Kg PO daily, alone or with BQ788 600 ng IP TIW; p<0.05. As to the method: FIG. 7. BQ788 synergizes with Dabrafenib in vivo. A375 human melanoma cells were implanted subcutaneously into the rear flank of Nu/J nude mice and allowed to grow to 150 mm3-200 mm3 prior to randomization and initiation of treatment. The mice received the following treatments: (1) vehicle (n=8), (2) Dabrafenib 100 mg/Kg PO daily (n=5), and (3) Dabrafenib+BQ788 600 ng IP TIW (n=5).
A375 human melanoma cells (3×10^6) were implanted subcutaneously into the rear flank of Nu/J nude mice and allowed to grow to 150 mm3-200 mm3 prior to randomization and initiation of treatment. The treatment groups were as follows: (1) vehicle (n=8), Dabrafenib 100 mg/Kg PO daily (n=5), (2) Dabrafenib+BQ788 600 ng IP 3×per week (n=5).

pIC50, pKi: −log10 of the molar value. Entries after “also recorded” stand apart in the source; their conditions may differ. Some results are limits rather than exact numbers.

What is called pKi is the negative decadic logarithm of the Ki, by convention in mol/L. Higher therefore signals a low Ki. In general, pIC50 refers to −log10 of the IC50, conventionally taken in molar units. The low end stands for a large IC50, the high end for a small IC50.

At ETBR, `CCCOc1ccc([C@H]2[C@H](C(=O)O)[C@@H](c3ccc4c(c3)OCO4)CN2CC(=O)Nc2c(CC)cccc2CC)cc1` [A192621, (2R,3R,4S)-4-(1,3-benzodioxol-5-yl)-1-[2-(2,6-diethylanilino)-2-oxoethyl]-2-(4-propoxyphenyl)pyrrolidine-3-carboxylic acid] had a pKi of 8.06 and a pIC50 of 8.35. In addition, in data set [1], the CNS melanoma tumors entry is on record as “shrinks CNS melanoma tumors”, the brain melanoma metastases entry was “shrinks brain melanoma metastases” and the survival result is “increases survival”.
With `CCCC[C@@H](NC(=O)[C@@H](Cc1cn(C(=O)OC)c2ccccc12)NC(=O)[C@H](CC(C)(C)C)NC(=O)N1[C@H](C)CCC[C@@H]1C)C(=O)O` [BQ788], the “reduction in tumor weight” value in data set [2] (SKMEL28 xenograft mice, 120 ng (~60 ug/kg) BQ788 in DMSO IP 3x per week x 6 weeks) amounted to 75%. In addition, the “clearance of lung metastases” value in data set [2] (SKMEL28 xenograft mice, 120 ng (~60 ug/kg) BQ788 in DMSO IP 3x per week x 6 weeks, vs control mice) was over 95%. The “apoptosis in melanoma tumor cells” value in data set [2] (melanoma tumor cells) is on record as “induces apoptosis”. Moreover, the “average weight loss relative to baseline body weight by the end of the study” value in data set [3] came to 5%. At ETBR, this molecule gave a pKi of 7.75 and a pIC50 of 8.92.
In the case of `CC(C)(C)c1nc(-c2cccc(NS(=O)(=O)c3c(F)cccc3F)c2F)c(-c2ccnc(N)n2)s1` [Dabrafenib], the tumor growth entry in data set [4] is given as “retarded the growth of tumors; also recorded: retarded tumor growth”.
